Measurements reported in patent US20240426838A1, “CRISPR/CAS-Associated Detection Assays, Methods and Kits” (BioPoint Pty Limited, priority 2021, published 2024).

Assays:
Format in all cases: biochemical
[1] = system: Cas12a; test: Electrophoretic mobility shift assay of chemical enhancers on CRISPR/Cas12a; conditions: optimal concentrations (10 mM DTT, 500 μM TCEP, 1% PVA, 0.04% Brij23)
Experimental: This is because fluorescence process may be independently affected by chemical enhancers used here. Briefly, the standard CRISPR/Cas12a reaction mixture was prepared as per point 1 above, then chemical enhancers were added at concentrations determined to be optimal (10 mM DTT, 500 μM TCEP, 1% PVA, 0.04% Brij23), and the same volume of 1×PBS was also used as the control. […] Alternatively, 50 μL of CRISPR/Cas12a and the chemical enhancer mixture was firstly mixed with 1 μL different concentrations of target ssDNA (5 μM, 10 μM, 15 μM, 20 μM), and then either 1 μL 1 μM triggering ssDNA was added or 1 μL PBS as control. The reaction mixtures were incubated at 26° C. for 60 mins, and then deactivated at 65° C. for 15 mins. Afterwards, 10 μL of each deactivated reaction mixture was mixed with 2 μL 6× loading dye and loaded onto 3% Agarose gel with 1× GelRed nucleic acid dye for voltage-constant electrophoresis at 60V for 100 mins.

[2] = target: T1, Cas13a (Leptotrichia wadei, UniProt U2PSH1); test: Evaluation of trans-cleavage activity of chemically induced CRISPR/Cas13a system
T1 construct: Twinstrep (N); SUMO (N); His tag (only implied by HisTrap purification); host or cells: E. coli
T1 sequence (U2PSH1 whole entry): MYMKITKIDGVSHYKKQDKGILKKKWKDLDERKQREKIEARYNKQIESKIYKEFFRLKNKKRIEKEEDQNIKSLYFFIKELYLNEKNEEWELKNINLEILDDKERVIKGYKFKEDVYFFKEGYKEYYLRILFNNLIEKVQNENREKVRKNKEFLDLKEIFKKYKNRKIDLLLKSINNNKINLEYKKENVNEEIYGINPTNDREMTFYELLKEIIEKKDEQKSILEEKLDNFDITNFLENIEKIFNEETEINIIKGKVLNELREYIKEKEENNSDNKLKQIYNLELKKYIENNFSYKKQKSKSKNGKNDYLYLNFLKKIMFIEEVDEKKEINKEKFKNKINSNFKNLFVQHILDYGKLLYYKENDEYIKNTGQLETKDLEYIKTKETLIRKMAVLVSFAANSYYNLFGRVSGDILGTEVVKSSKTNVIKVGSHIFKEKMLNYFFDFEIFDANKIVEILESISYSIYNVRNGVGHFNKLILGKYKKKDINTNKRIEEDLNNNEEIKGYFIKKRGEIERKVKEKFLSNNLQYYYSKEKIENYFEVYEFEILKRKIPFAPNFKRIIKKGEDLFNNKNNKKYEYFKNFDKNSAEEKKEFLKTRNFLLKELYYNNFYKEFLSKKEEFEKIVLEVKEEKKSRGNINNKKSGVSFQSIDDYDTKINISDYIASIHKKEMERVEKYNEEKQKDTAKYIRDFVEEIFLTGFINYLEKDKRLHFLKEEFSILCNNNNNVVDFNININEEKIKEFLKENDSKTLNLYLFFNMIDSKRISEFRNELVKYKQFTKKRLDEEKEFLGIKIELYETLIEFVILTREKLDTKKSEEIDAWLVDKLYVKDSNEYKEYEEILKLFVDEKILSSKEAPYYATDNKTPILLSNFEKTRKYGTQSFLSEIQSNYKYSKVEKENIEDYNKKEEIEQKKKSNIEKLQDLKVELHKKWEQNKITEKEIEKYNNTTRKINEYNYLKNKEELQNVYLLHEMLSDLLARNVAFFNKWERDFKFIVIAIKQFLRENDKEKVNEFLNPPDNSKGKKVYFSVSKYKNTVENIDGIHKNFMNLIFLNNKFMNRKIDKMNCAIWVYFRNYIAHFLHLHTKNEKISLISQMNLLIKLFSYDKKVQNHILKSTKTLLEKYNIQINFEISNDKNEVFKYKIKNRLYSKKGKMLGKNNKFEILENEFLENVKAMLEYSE
Experimental: For all trans-cleavage evaluation experiments, the CRISPR/Cas13a reaction mixture was prepared as follows: 10 μL 4 μM (40 μmol) of Cas13a protein was gently mixed with 2 μL 20 μM (40 μmol) gRNA in 1 mL reaction buffer. Then, 6 μL 20 μM (120 μmol) of pre-synthesized ssRNA target (FAM) was added and well mixed to form the standard reaction mixture.
Diverse types of chemicals were first dissolved in MilliQ water to produce high concentration storage solutions, then a certain amount of storage solution was added into the standard CRISPR/Cas13a reaction mixture to realize the certain concentration of chemical involved final reaction mixture.
2 μL 1 μM single strand trigger RNA was applied in 100 μL prepared CRISPR/Cas13a reaction mixture for starting the CRISPR reaction process. ID3 plate reader was applied for the detection of fluorescence readout from FAM modified target with the excitation wavelength of 480 nm and emission wavelength of 520 nm.

[3] = system: Cas12a; test: Optimization of chemical-based reaction buffer, RNA reporter based CRISPR/Cas12a system; conditions: chemicals added in NEB2.1 buffer; DTT 10 mM
Experimental: 10 μL 10 μM ([…]) Cas12a protein was gently mixed with 5 μL 20 μM ([…]) gRNA in 3.6 mL 1×NEB 2.1 buffer, which was diluted by Milli-Q water. Then, 6 μL 100 μM (0.6 nmol) ssRNA linked fluorescent reporter was added and well mixed to form the final reaction mixture. The prepared reaction mixture was kept on ice before use.
Three different chemicals were applied in the reaction buffer system, and the concentration of 1,4-dithiothreitol (DTT) was 10 mM, the concentration of Tris(2-carboxyethyl)phosphine hydrochloride (TCEP) was 0.5 mM, and the concentration of Polyvinyl alcohol (PVA) was 10 mg/mL.

[4] = system: Cas12a; test: Trans-cleavage ability of antibody-Cas12a/gRNA (BAC) conjugate with ssDNA reporters; conditions: for reaction time to reach desired fluorescent signal intensity, faster than control: BAC conjugate, 10 mM DTT
Experimental: Firstly, 2 uL 100 μM (30 ug) Cas12a protein and 10 uL 20 μM gRNA were mixed in 30 uL NEB2.1 buffer to form the Cas12a/gRNA mixture solution. In the meanwhile, 3 uL modifier from the streptavidin conjugation kit (Abcam, ab102921) was mixed with 23 uL 1.3 mg/mL (30 ug) Cry104 antibody gently. Then, the two types of solutions were mixed together and incubated for 3 hours at room temperature. After the incubation, 3 uL quencher from the streptavidin conjugation kit (Abcam, ab102921) was added into the solution to stop the excess conjugation reaction. Finally, 50% glycerol (volume) was added into the prepared antibody-Cas12a/gRNA solution for long time storage in −20° C. freezer.
For comparison, an antibody-Cas12a conjugate was prepared according to the same procedure, where only Cas12a protein was mixed with the Cry104 antibody and modifier (i.e. without gRNA).
The standard CRISPR/Cas12a mixture was first prepared using Cry104-Cas12a/gRNA conjugate. Briefly, 100 pmol of Cry104-Cas12a/gRNA conjugate was added into 3.6 mL 1×NEB 2.1 buffer. Then, 6 μL 100 μM (0.6 nmol) ssDNA linked fluorescent reporter and 36 μL 1 M DTT were added and well mixed to form the final reaction mixture. The prepared reaction mixture was kept on ice before use.
In order to evaluate the trans-cleavage ability of Cry104-Cas12a/gRNA conjugate, 5 μL 1 μM triggering ssDNA was added into 100 μL prepared standard CRISPR/Cas12a mixture and incubated for 120 min at room temperature or 37° C. before fluorescence signal test using ID3 plate reader (Excitation wavelength of 570 nm and emission wavelength of 615 nm).

[5] = system: Cas12a; test: Evaluation of trans-cleavage activity of Cas12a with chemical enhancers (fluorescence readout); conditions: for fluorescence intensity, fold of that in the control: optimised concentrations, Texas Red ssDNA target, incubation time 2 h; for performance with ssRNA target: ssRNA target (FAM), 37° C. incubation; for optimum concentration leading to the highest trans-cleavage rate: sulfhydryl reductant
Experimental: For all trans-cleavage activity evaluation experiments, the CRISPR/Cas12a reaction mixture was prepared as follows: 1 μL 100 μM ([…]) of Cas12a protein was gently mixed with 5 μL 20 μM ([…]) gRNA in 3.6 mL 1×NEB 2.1 buffer. […] Different chemical enhancers (sulfhydryl reductant and surfactant) were first dissolved in MilliQ water to produce high concentration storage solutions, then a certain amount of storage solution was added into the standard CRISPR/Cas12a reaction mixture to realize the final reaction mixture with defined concentration of enhancers.
5 μL 1 μM single strand trigger DNA was applied in 100 μL prepared CRISPR/Cas12a reaction mixture for starting the CRISPR reaction process. SpectraMax i3x multi-Mode Microplate Reader (Molecular devices) was applied for the detection of fluorescence readout.

| Compound | effect in electrophoretic mobility shift assay [1] | optimum concentration [2] | performance of RNA reporter based CRISPR/Cas12a biosensing system [3] | reaction time to reach desired fluorescent signal intensity, faster than control [4] | reaction time to reach desired fluorescent signal intensity, faster than control ([4]; 37° C.) | fluorescence signal output, factor versus control reaction ([4]; DTT 10 mM and 37° C.) | fluorescence signal increase of BAC conjugate ([4]; DTT 10 mM, room temperature) | fluorescence signal relative to controls without DTT ([5]; Cy5.5 ssDNA target, 120 min) | fluorescence intensity, fold of that in the control [5] | performance with ssRNA target [5] | optimum concentration leading to the highest trans-cleavage rate ([5]; Cas12a) | optimum concentration of non-ionic surfactant ([5]; Cas12a, Texas red DNA reporter) |
| --- | --- | --- | --- | --- | --- | --- | --- | --- | --- | --- | --- | --- |
| O[C@H](CS)[C@H](O)CS (racemic) [DTT, Dithiothreitol] | increased cleavage of the target DNA | 5 mM | best performance | ~50% | ~70% | approximately 2 | ~1.4 times | around three | 1.3 fold | Enhanced performances | 10 mM |  |
| OCCS [2-ME, 2-Mercaptoethanol] |  |  |  |  |  |  |  |  | 3.4 fold |  | 1 mM |  |
| O=C(O)CCP(CCC(=O)O)CCC(=O)O [TCEP, Tris(2-carboxyethyl)phosphine] |  |  |  |  |  |  |  |  | 2.4 fold | Enhanced performances | 0.5 mM |  |
| Triton X-100 |  |  |  |  |  |  |  |  |  |  |  | 0.01% |
